Activity calls are given as the source filed them. The rule behind the calls is not given here.
Legend:
[1] = molecular target: Sigma non-opioid intracellular receptor 1 (Homo sapiens, UniProt Q99720); assay: GPCRScan assay: inhibition of Sigma 1; design: radioligand conc. used [nm] 4.0 – 5.0, parental cells HEKT
[2] = molecular target: D(2) dopamine receptor (Homo sapiens) (UniProt P14416); conditions: Compound concentration 10.0 uM
[3] = molecular target: Serine/threonine-protein kinase Nek7 (Homo sapiens, UniProt Q8TDX7); assay: Inhibition of NEK7 at compound concentration of 10.0 uM using the ScanMax (DiscoverX)
Histamine H1 receptor [4] = molecular target: T1, Histamine H1 receptor (Homo sapiens, UniProt P35367); assay: GPCRScan assay: inhibition of H1; design: radioligand conc. used [nm] 0.6 – 2.0, parental cells stable HEK
[5] = Immunoblot method to monitor prenylation inhibition of Ras; design: species or system Homo sapiens
[6] = molecular target: Adenosine receptor A3 (Homo sapiens) (UniProt P0DMS8); assay: A3 (h) Ligand binding assay; conditions: Compound concentration 10.0 uM
[7] = molecular target: Beta-1 adrenergic receptor (Homo sapiens) (UniProt P08588); assay: beta1 (h) Ligand binding assay; conditions: Compound concentration 10.0 uM
[8] = molecular target: Sodium-dependent noradrenaline transporter (Homo sapiens) (UniProt P23975); assay: NE uptake (h) Ligand binding assay
[9] = molecular target: Type-2 angiotensin II receptor (Homo sapiens) (UniProt P50052); assay: AT2 (h) Ligand binding assay; conditions: Compound concentration 10.0 uM
[10] = molecular target: GABA-A receptor; anion channel (Homo sapiens) (UniProt P14867+P47870+P18507+P28472+P48169+Q99928+Q9UN88+P34903+O00591+O14764+Q8N1C3+P18505+P78334+P47869+P31644+Q16445); assay: BZD (central) Ligand binding assay; format: protein-complex assay; conditions: Compound concentration 10.0 uM
[11] = molecular target: Cannabinoid receptor 1 (Homo sapiens) (UniProt P21554); assay: CB1 (h) (central) Ligand binding assay
[12] = molecular target: Cholecystokinin receptor type A (Homo sapiens) (UniProt P32238); assay: CCKA (h) Ligand binding assay; conditions: Compound concentration 10.0 uM
[13] = molecular target: Sodium-dependent dopamine transporter (Homo sapiens) (UniProt Q01959); assay: DA uptake (h) Ligand binding assay
[14] = molecular target: C-X-C chemokine receptor type 1 (Homo sapiens) (UniProt P25024); assay: IL-8A (h) (CXCR1) Ligand binding assay; conditions: Compound concentration 10.0 uM
[15] = molecular target: C-C chemokine receptor type 1 (Homo sapiens) (UniProt P32246); assay: CCR1 (h) Ligand binding assay; conditions: Compound concentration 10.0 uM
Histamine H1 receptor [16] = molecular target: T1, Histamine H1 receptor; assay: H1 (central) Ligand binding assay; conditions: Compound concentration 10.0 uM
[17] = molecular target: T2, Muscarinic acetylcholine receptor M1 (Homo sapiens) (UniProt P11229); assay: M1 (h) Ligand binding assay; conditions: Compound concentration 10.0 uM
T2 sequence (whole entry): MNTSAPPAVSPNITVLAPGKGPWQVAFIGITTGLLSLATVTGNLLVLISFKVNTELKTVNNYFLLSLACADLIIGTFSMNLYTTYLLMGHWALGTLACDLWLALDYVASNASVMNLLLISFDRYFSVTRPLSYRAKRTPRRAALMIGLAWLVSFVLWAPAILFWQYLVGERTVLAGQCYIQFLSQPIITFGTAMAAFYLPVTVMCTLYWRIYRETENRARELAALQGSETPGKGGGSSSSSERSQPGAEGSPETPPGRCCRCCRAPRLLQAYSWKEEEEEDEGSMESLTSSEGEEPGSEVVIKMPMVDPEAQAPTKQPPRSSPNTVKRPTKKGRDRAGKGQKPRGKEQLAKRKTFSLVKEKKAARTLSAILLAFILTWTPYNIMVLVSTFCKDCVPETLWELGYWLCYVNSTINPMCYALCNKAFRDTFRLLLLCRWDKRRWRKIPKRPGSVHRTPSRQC

[18] = molecular target: Muscarinic acetylcholine receptor M2 (Homo sapiens) (UniProt P08172); assay: M2 (h) Ligand binding assay; conditions: Compound concentration 10.0 uM
[19] = molecular target: Neuromedin-K receptor (Homo sapiens) (UniProt P29371); assay: NK3 (h) Ligand binding assay; conditions: Compound concentration 10.0 uM
[20] = molecular target: Neuropeptide Y receptor type 1 (Homo sapiens) (UniProt P25929); assay: Y1 (h) Ligand binding assay; conditions: Compound concentration 10.0 uM
[21] = molecular target: Neuropeptide Y receptor type 2 (Homo sapiens) (UniProt P49146); assay: Y2 (h) Ligand binding assay; conditions: Compound concentration 10.0 uM
[22] = molecular target: Mu-type opioid receptor (Homo sapiens) (UniProt P35372); assay: Mu (h) Ligand binding assay; conditions: Compound concentration 10.0 uM
[23] = molecular target: P2X receptor (Rattus norvegicus) (UniProt P51579+P49653+P51578+Q64663+P47824+P51577+P49654); assay: P2X Ligand binding assay; format: protein assay; conditions: Compound concentration 10.0 uM
[24] = molecular target: P2Y receptor (Homo sapiens) (UniProt Q9H244+P51582+P47900+P41231+Q15391+Q15077+Q96G91+Q9BPV8); assay: P2Y Ligand binding assay; format: protein assay; conditions: Compound concentration 10.0 uM
[25] = molecular target: T3, 5-hydroxytryptamine receptor 1A (Homo sapiens) (UniProt P08908); assay: 5-HT1A (h) Ligand binding assay; conditions: Compound concentration 10.0 uM
T3 sequence (whole entry): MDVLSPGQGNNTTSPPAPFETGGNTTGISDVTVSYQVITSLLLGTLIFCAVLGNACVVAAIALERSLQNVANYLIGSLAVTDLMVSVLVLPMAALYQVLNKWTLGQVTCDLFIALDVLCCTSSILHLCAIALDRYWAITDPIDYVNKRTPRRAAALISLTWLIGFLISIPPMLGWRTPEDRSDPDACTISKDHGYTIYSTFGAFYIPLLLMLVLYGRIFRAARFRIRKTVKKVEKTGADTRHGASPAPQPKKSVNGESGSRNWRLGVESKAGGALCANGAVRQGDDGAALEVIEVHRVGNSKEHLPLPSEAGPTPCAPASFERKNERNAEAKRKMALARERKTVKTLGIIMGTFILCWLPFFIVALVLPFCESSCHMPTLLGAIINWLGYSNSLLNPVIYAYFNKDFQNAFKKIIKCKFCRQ

[26] = molecular target: 5-hydroxytryptamine receptor 1B (Homo sapiens) (UniProt P28222); assay: 5-HT1B Ligand binding assay; conditions: Compound concentration 10.0 uM
[27] = molecular target: 5-hydroxytryptamine receptor 5A (Homo sapiens) (UniProt P47898); assay: 5-HT5A (h) Ligand binding assay; conditions: Compound concentration 10.0 uM
[28] = molecular target: 5-hydroxytryptamine receptor 6 (Homo sapiens) (UniProt P50406); assay: 5-HT6 (h) Ligand binding assay; conditions: Compound concentration 10.0 uM
[29] = molecular target: Sigma receptor (Homo sapiens) (UniProt Q99720+Q5BJF2); assay: Sigma (non selective) Ligand binding assay; format: protein assay
[30] = molecular target: Vasopressin V1a receptor (Homo sapiens) (UniProt P37288); assay: V1a (h) Ligand binding assay; conditions: Compound concentration 10.0 uM
[31] = molecular target: Beta-1 adrenergic receptor (Homo sapiens) (UniProt P08588); conditions: Compound concentration 10.0 uM
[32] = molecular target: Melatonin receptor type 1A (Homo sapiens) (UniProt P48039); assay: ML1 Ligand binding assay; conditions: Compound concentration 10.0 uM
[33] = system: Glutamate receptor ionotropic NMDA, PCP site (Homo sapiens); assay: PCP Ligand binding assay

Sodium-dependent dopamine transporter (Homo sapiens), sequence (Q01959 whole entry): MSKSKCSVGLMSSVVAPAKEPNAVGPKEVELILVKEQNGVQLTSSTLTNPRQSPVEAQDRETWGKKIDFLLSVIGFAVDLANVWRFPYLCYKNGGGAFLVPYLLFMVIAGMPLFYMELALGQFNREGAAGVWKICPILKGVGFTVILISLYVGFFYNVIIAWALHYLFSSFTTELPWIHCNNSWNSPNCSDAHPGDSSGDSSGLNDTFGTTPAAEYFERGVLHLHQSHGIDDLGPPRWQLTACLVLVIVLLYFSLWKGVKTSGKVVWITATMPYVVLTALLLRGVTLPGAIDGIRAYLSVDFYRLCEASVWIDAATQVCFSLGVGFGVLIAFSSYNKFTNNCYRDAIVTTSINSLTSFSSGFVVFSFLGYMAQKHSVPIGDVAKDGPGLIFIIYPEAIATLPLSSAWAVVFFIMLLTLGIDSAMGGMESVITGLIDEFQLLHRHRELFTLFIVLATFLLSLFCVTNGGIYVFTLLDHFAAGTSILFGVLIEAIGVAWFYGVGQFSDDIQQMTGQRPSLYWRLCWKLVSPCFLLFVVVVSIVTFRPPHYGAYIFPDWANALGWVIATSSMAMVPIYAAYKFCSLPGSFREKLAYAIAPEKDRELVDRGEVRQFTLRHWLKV
Cannabinoid receptor 1 (Homo sapiens), sequence (P21554 whole entry): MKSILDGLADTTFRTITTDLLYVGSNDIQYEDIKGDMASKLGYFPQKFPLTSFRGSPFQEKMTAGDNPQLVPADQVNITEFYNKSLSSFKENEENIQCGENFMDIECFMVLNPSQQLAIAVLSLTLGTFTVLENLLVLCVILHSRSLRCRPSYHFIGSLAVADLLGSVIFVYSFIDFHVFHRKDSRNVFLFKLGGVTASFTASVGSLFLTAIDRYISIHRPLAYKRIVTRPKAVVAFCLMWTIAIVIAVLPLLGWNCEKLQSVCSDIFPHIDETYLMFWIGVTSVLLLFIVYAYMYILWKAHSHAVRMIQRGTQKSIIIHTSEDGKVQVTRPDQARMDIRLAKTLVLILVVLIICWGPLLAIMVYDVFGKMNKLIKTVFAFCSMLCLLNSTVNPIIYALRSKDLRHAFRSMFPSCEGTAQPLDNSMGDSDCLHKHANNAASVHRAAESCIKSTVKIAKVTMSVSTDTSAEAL
T1 sequence (P35367 whole entry): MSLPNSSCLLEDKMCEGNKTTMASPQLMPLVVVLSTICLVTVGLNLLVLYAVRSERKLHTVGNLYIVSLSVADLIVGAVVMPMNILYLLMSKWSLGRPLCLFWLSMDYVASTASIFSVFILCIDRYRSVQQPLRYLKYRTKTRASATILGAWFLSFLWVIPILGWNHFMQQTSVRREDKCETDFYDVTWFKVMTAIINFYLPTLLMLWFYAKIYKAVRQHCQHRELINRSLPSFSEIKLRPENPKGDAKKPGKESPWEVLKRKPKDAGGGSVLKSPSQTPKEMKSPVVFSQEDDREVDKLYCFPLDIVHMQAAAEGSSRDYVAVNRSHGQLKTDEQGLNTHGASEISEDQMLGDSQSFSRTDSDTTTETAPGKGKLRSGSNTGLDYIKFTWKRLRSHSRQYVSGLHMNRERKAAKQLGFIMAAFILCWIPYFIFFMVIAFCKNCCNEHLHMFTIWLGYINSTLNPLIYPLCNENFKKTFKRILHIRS
Sigma receptor (Homo sapiens), sequence (Q5BJF2 whole entry, looked up): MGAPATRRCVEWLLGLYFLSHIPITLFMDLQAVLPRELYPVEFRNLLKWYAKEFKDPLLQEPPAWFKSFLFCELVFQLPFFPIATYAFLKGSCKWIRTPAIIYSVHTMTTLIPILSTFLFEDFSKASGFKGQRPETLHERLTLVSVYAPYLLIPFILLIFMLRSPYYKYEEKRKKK
Sigma receptor (Homo sapiens), sequence (Q99720 whole entry, looked up): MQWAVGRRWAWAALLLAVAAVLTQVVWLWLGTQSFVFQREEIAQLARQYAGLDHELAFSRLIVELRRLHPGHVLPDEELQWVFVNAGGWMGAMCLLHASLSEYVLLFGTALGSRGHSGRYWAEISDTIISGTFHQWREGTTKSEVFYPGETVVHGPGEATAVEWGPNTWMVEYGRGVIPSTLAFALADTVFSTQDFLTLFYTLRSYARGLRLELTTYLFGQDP
Beta-1 adrenergic receptor (Homo sapiens), sequence (P08588 whole entry, looked up): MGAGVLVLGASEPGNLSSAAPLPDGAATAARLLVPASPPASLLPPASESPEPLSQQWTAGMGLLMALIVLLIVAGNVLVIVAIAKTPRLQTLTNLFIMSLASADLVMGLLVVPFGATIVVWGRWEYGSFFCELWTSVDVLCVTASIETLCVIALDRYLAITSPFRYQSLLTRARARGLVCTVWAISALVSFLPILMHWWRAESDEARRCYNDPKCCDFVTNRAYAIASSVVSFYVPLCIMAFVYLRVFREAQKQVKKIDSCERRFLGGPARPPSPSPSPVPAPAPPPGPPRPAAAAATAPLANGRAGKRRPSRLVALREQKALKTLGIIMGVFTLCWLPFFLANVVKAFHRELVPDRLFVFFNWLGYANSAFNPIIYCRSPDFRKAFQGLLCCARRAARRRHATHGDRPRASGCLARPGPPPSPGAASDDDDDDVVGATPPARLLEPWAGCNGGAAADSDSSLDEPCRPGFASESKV
Sodium-dependent noradrenaline transporter (Homo sapiens), sequence (P23975 whole entry): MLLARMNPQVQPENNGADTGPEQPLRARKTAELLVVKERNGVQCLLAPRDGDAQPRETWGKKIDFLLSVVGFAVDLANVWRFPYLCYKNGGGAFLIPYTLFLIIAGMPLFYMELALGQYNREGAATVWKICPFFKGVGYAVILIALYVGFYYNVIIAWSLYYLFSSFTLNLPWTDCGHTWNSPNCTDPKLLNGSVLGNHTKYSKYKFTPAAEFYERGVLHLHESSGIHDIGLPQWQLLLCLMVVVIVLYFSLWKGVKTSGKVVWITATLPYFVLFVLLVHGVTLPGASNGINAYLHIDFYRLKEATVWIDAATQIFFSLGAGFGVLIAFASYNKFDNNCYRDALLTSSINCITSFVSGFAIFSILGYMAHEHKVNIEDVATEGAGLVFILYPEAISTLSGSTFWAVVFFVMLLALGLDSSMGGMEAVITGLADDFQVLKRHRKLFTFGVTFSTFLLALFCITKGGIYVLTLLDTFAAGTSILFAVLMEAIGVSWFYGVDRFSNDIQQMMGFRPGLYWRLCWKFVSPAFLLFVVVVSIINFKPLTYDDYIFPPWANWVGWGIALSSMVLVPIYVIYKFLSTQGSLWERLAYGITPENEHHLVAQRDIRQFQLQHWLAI
5-hydroxytryptamine receptor 1B (Homo sapiens), sequence (P28222 whole entry): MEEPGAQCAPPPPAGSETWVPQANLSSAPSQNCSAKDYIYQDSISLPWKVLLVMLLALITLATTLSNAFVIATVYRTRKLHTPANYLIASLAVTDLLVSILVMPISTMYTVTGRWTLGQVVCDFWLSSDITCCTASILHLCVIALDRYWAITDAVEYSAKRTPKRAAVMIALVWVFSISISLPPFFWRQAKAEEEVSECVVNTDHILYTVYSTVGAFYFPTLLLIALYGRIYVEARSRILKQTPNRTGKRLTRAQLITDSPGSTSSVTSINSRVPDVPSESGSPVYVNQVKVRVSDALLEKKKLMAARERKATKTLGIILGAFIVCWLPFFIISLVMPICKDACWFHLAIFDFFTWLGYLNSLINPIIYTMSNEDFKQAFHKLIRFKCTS
Melatonin receptor type 1A (Homo sapiens), sequence (P48039 whole entry, looked up): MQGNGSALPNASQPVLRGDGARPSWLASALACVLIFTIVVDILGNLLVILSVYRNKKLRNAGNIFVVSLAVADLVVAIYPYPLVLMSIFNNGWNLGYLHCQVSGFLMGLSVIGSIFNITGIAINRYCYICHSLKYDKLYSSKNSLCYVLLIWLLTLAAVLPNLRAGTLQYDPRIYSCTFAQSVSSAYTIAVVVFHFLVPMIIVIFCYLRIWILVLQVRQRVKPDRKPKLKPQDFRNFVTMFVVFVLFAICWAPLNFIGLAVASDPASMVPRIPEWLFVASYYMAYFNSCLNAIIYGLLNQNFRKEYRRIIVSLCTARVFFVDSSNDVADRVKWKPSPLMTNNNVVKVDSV
D(2) dopamine receptor (Homo sapiens), sequence (P14416 whole entry): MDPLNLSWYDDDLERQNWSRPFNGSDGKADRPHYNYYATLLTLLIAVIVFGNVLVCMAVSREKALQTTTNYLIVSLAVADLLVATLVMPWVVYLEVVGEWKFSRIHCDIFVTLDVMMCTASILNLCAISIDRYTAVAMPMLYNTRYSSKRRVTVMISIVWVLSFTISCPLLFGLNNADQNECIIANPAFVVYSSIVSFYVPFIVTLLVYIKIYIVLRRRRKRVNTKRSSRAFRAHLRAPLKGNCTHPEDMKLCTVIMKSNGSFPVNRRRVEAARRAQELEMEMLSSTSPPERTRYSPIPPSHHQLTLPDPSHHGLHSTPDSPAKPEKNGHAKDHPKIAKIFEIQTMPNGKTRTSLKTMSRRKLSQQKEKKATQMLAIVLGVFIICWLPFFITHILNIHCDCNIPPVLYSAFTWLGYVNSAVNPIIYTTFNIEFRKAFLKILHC
Serine/threonine-protein kinase Nek7, sequence (Q8TDX7 whole entry): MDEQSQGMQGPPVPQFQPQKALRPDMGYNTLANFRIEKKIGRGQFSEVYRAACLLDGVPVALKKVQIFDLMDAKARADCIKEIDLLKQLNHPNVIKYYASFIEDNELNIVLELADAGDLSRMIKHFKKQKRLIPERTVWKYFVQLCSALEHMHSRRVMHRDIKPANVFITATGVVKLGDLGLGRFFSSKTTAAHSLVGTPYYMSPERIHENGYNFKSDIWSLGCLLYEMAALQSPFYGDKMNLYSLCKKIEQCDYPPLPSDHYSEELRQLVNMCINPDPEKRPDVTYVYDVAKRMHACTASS
Neuropeptide Y receptor type 1 (Homo sapiens), sequence (P25929 whole entry): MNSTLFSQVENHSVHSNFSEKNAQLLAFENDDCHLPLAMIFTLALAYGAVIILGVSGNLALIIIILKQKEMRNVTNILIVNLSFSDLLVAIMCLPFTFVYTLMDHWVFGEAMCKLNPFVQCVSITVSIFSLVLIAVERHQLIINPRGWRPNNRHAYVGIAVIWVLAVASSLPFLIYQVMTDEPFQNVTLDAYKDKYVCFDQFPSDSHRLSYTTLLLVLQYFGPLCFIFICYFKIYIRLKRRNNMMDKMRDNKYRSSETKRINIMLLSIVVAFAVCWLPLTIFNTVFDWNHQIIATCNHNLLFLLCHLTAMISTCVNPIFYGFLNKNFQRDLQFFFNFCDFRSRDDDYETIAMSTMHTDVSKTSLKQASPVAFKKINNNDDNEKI

Cn1cncc1[C@@](O)(COc1ccc(C#N)cc1-c1ccc(OC(F)(F)F)cc1)c1ccc(C#N)cc1 [A-108]
Ki [1]: 0.0916 µM | inhibition [2]: 7.47%

Cn1cncc1[C@](O)(COc1ccc(C#N)cc1-c1ccc(OC(F)(F)F)cc1)c1ccc(C#N)cc1 [ABT-100]
Kd [3]: > 10 µM (not active) | Ki (Histamine H1 receptor [4]): 10 µM | EC50 [5]: 0.00073 µM (active) | inhibition [6]: < 10% | inhibition [7]: 22% | inhibition ([8]; Compound concentration 3.0 uM): 45% | inhibition ([8]; Compound concentration 10.0 uM): 74% | inhibition [9]: < 10% | inhibition [10]: < 10% | inhibition ([11]; Compound concentration 1.0 uM): 23% | inhibition ([11]; Compound concentration 3.0 uM): 45% | inhibition ([11]; Compound concentration 10.0 uM): 68% | inhibition [12]: < 10% | inhibition ([13]; Compound concentration 1.0 uM): 21% | inhibition ([13]; Compound concentration 3.0 uM): 41% | inhibition ([13]; Compound concentration 10.0 uM): 75% | inhibition [14]: < 10% | inhibition [15]: < 10% | inhibition (Histamine H1 receptor [16]): < 10% | inhibition [17]: < 10% | inhibition [18]: < 10% | inhibition [19]: 45% | inhibition [20]: < 10% | inhibition [21]: < 10% | inhibition [22]: 18% | inhibition [23]: < 10% | inhibition [24]: < 10% | inhibition [25]: 18% | inhibition [26]: < 10% | inhibition [27]: 30% | inhibition [28]: < 10% | inhibition ([29]; Compound concentration 3.0 uM): 28% | inhibition ([29]; Compound concentration 10.0 uM): 67% | inhibition [30]: < 10% | inhibition [31]: 4.25% | inhibition [32]: 50% | inhibition ([33]; Compound concentration 0.3 uM): 14% | inhibition ([33]; Compound concentration 1.0 uM): 75% | inhibition ([33]; Compound concentration 3.0 uM): 97% | inhibition ([33]; Compound concentration 10.0 uM): 100%
